From PMC9108603, “Microbial Metabolite Inspired β‐Peptide Polymers Displaying Potent and Selective Antifungal Activity” (Advanced Science, 2022)
≈ marks a conversion by molar mass, not a printed value. Like-named read-outs stand apart in the source and are kept apart here.

Key:
[1] = system: mature C. albicans biofilms; assay: Eradication of mature biofilm (MTT); format: cell-based, Candida albicans; conditions: 48 h biofilm, then 48 h treatment at 37 °C
[2] = system: C. albicans; assay: MFC assay, plating after the MIC test; format: cell-based; conditions: Candida albicans; also: kills > 99.9%
Description: (§1) In vitro antifungal assays. The MIC assays for C. albicans (K1, SC5314, Gu5, ATCC90028, R01, R02, R03 and R04 strains) and C. neoformans (H99, MYA737 and JEC21 strains) were conducted according to a previously described protocol. The cultured fungal cells were collected at 2.5 × 10^3 CFU/mL in RPMI 1640 medium to give the working suspension. Two- […]
(§2) Then 50 µL of the cell suspension was added to each well. Wells containing cells in RPMI without any polymer or antifungal drug were used as drug-free controls, and wells containing RPMI medium only were used as cell-free controls. The plate was gently stirred for 10 seconds and then incubated at 30 °C. After C. albicans and C. neoformans cells were incubated for 24 h and 48 h, respectively, fungal cell growth was checked visually. The MIC values were identified as the lowest concentration […]
(§3) The MFC assay for Candida and Cryptococcus was conducted after the MIC test.
(§4) An aliquot of 3 µL premixed suspension from each well was plated on the yeast extract-peptone-dextrose (YPD) agar. The plates were incubated at 30 °C for 24 h and 48 h, respectively, for C. albicans cells and C. neoformans cells. Then the plate was inspected visually for colony formation. […]

[3] = system: C. neoformans; assay: MFC assay, plating after the MIC test; format: cell-based; conditions: Cryptococcus neoformans, 48 h; also: kills > 99.9%
Description: as §1, §2, §3, §4

[4] = system: various mammalian cells; assay: Cytotoxicity, MTT assay, summary over cell types; format: cell-based; conditions: HUVEC, RAW264.7, LO2, COS7, NCM‐460, 24 h, read-out: IC50 for cells other than fibroblast (range)
Description: Cytotoxicity assay. Cytotoxicity tests were performed on NIH 3T3 fibroblast cells, endothelial cells (HUVEC), macrophage (RAW264.7), liver cells (LO2), kidney cells (COS7) and enterocyte (NCM-460) using MTT assay. Cells were cultured in DMEM supplemented with 10% FBS, 5% penicillin, 2 mM L-glutamine and incubated at 37 °C in 5% CO 2. Cells were harvested and seeded onto 96-well plates at a density of 1.0 × 10^4 cells per well and incubated for 24 h. On each plate, wells containing growth medium only and cells in growth medium without any antifungal agent were used as the negative and positive control, […]
concentrations ranging from 800 to 1.6 μg/mL. Medium in each cell-containing well was replaced with 100 μL of the corresponding polymer solution, and the plates were incubated at 37 °C for 24 h. Then, the solution in each well was switched to 100 µL MTT solution (1 mg/mL) and the plate was incubated in the dark at 37 °C for 4 h. […] Then 85 µL of the supernatant from each well was transferred to the corresponding well in a new plate, followed by absorbance measurement at 570 nm on a plate reader. […] The percentage of cell viability in each test well, relative to the positive control (which defines 100%) w as calculated from [% fibroblast growth = (A polymer – Ablank)/(Acontrol – A blank) × 100]. […]

Molecule | Concentration that eradicates mature biofilms (SMIC80) [1] [µg/mL] | MFC ([2]; 24 h, read-out: MFC C. albicans R01) [µg/mL] | MFC ([2]; 24 h, read-out: MFC C. albicans R03) [µg/mL] | MFC ([2]; ATCC90028, 24 h, read-out: MFC C. albicans ATCC90028) [µg/mL] | MFC ([2]; SC5314, 24 h, read-out: MFC C. albicans SC5314) [µg/mL] | MFC ([3]; read-out: MFC C. neoformans JEC21) [µg/mL] | MFC ([3]; read-out: MFC C. neoformans MYA737) [µg/mL] | IC50 [4] [µg/mL]
poly(DL‐diaminopropionic acid) [PDAP20] | 50 |  |  |  |  |  |  | 
C[C@@H]1[C@H](O)[C@@H](C)/C=C/C=C/C=C/C=C/C=C/C=C/C=C/[C@H](O[C@@H]2O[C@H](C)[C@@H](O)[C@H](N)[C@@H]2O)C[C@@H]2O[C@](O)(C[C@@H](O)C[C@@H](O)[C@H](O)CC[C@@H](O)C[C@@H](O)CC(=O)O[C@H]1C)C[C@H](O)[C@H]2C(=O)O [AmpB, amphotericin B] |  | 1.6 (≈ 1.73 µM) | 1.6 (≈ 1.73 µM) | 1.6 (≈ 1.73 µM) | 1.6 (≈ 1.73 µM) | 1.6 (≈ 1.73 µM) | 1.6 (≈ 1.73 µM) | 8.8 to 128 (≈ 9.52 to 139 µM)
